Experimental data as given in patent publication US5650428A, “Arylsulfonamide derivative and pharmaceutical compositions and use thereof” (NKK Corporation, priority 1993, dated 1997).
Counter-ions that a name gives are not always drawn.

How the values were obtained:
[1] = biological target: T1, thromboxane A2 (TxA2) receptor (Cavia porcellus, UniProt A0A286Y4I8); test: TxA2 antagonist action by binding assay; settings: washed guinea pig platelets, 1 nM [3H]-SQ29,548, 45 minutes at 25° C.
T1 construct: to obtain washed platelets; from tissue; host or cells: washed platelets of male Hartley guinea pigs
T1 sequence (A0A286Y4I8 1-347): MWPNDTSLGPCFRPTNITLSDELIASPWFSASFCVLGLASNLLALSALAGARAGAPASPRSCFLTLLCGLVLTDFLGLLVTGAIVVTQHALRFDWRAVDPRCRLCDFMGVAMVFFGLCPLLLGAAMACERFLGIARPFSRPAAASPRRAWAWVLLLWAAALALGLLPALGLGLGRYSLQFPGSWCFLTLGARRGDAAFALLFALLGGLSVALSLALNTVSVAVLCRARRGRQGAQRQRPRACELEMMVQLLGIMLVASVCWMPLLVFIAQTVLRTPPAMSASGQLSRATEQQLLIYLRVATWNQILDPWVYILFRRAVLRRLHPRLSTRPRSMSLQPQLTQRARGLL
Procedure: (1) TxA2 antagonist action by binding assay Guinea pigs (Hartley; male; body weight=approximately 500 g) were anesthetized with ether, and the blood was collected into sodium citrate (final concentration=0.38%). The preparation of platelets was carried out at room temperature. The platelet rich plasma was obtained by centrifugation at 980 rpm for 10 minutes. One tenth (1/10) amount of 77 mM-EDTA-Na (pH 7.4) was added to the platelet rich plasma, and the mixture was centrifuged for 10 minutes at 3000 rpm. The suspension was again centrifuged at 3000 rpm for 10 minutes. The precipitate was further resuspended in a suspension buffer (2) shown in Table 2 to obtain washed platelets. The number of platelets was counted by an automatic blood cell counter (Sysmex Microcellcounter F-800) and the sample was diluted with the suspension buffer to 4×10^8 cells/ml. The platelets, sample solution and labeled compounds were placed into plastic tubes in amounts (volumes) shown in the following Table 3, incubated for 45 minutes at 25° C., and then the mixture was filtered using a cell harvester (Brandel cell harvester M-24R) by a glass fiber filter (Whatman GF/B). After the filter was sufficiently dried, the scintillation was counted by a scintillation counter (Beckman LS5000TD). IC50 was calculated from (binding)/(control binding) ratio in the presence of an antagonist. [table 3: the next 10 blocks are its lines as printed, fixed-width]

[2] = test system: rat platelet; test: Inhibitory activity of aggregation in rat platelet; format: cell-based; settings: rat platelet rich plasma, arachidonic acid (final concentration 0.5 mM) as inducer; read-out: C: Inhibitory activity of aggregation in rat platelet (IC50; μM)
Procedure: (3) Inhibitory Activity of Aggregation in Rat Platelet The abdomen of etherized rat was open, and blood was taken from the abdominal arteries, using a sodium citrate solution (final concentration was 0.38%). The blood was centrifuged at 1100 rpm for 10 minutes, and the supernatent was separated as the platelet rich plasma. The plasma was further centrifuged at 2000 rpm for 15 minutes to obtain the supernatent as a platelet poor plasma. The platelet rich plasma (280 μl) was placed in a measuring cuvette and preincubated for 1 minute at 37° C. Then, a sample solution (10 μl) was added. After 2 minutes, an arachidonic acid solution (final concentration=0.5 mM) (10 μl) was added as an inducer. The change in light transmission was recorded for 5 minutes.

What does the source list for O=C(O)Cc1ccc(NC(=O)C(COC2CCCCO2)NS(=O)(=O)c2ccc(Cl)c([N+](=O)[O-])c2)cc1 (racemic) [Example 58, (RS)-N-(4-(carboxymethyl)phenyl)-2-(4-chloro-3-nitrobenzenesulfonylamino)-3-(tetrahydropyran-2-yloxy)propanamide]?
IC50 [1]: 1.4 µM; IC50 [2]: 5.3 µM

O=C(O)Cc1ccc(NC(=O)C(COC2CCCCO2)NS(=O)(=O)c2ccc3ccccc3c2)cc1 (racemic) [Example 60, (RS)-N-(4-(carboxymethyl)phenyl)-N-(4-(carboxymethyl)phenyl)-2-(2-naphthalenesulfonylamino)-3-(tetrahydropyran-2-yloxy)propanamide] was tested. Which IC50 [1] did it give?
The IC50 was 0.23 µM.

What about the IC50 [2] of the same compound?
The IC50 was 5.3 µM.

With O=C(O)Cc1ccc(NC(=O)C(Cn2ccnc2)NS(=O)(=O)c2ccc(Cl)cc2)cc1 (racemic) [Example 94, (RS)-N-(4-(carboxymethyl)phenyl)-2-(4-chlorobenzenesulfonylamino)-3-(1H-imidazol-1-yl)propanamide hydrochloride] as the compound, how does the IC50 [1] read?
The IC50 was 0.86 µM.

What about the IC50 [2] of the same compound?
The IC50 was 1.7 µM.

Which results are given for O=C(O)CCc1ccc(NC(=O)C(Cn2ccnc2)NS(=O)(=O)c2ccc(Cl)cc2)cc1 (racemic) [Example 95, (RS)-N-(4-(2-carboxyethyl)phenyl)-2-(4-chlorobenzenesulfonylamino)-3-(1H-imidazol-1-yl)propanamide hydrochloride]?
IC50 [1]: 1.5 µM; IC50 [2]: 1.79 µM

What does the source list for O=C(O)CCCCCCNC(=O)C(Cn1ccnc1)NS(=O)(=O)c1ccc(Cl)cc1 (racemic) [Example 101, (RS)-N-(6-carboxyhexyl)-2-(4-chlorobenzenesulfonylamino)-3-(1H-imidazol-1-yl)propanamide hydrochloride]?
IC50 [1]: 0.41 µM; IC50 [2]: 1.7 µM

Which results are given for O=C(O)Cc1ccc(NC(=O)C(Cn2ccnc2)NS(=O)(=O)c2ccc(F)cc2)cc1 (racemic) [Example 103, (RS)-N-(4-(carboxymethyl)phenyl)-2-(4-fluorobenzenesulfonylamino)-3-(1H-imidazol-1-yl)propanamide]?
IC50 [1]: 1.9 µM; IC50 [2]: 1.7 µM

Which IC50 [1] does the source give for O=C(O)Cc1ccc(NC(=O)C(Cn2ccnc2)NS(=O)(=O)c2ccc(Br)cc2)cc1 (racemic) [Example 104, (RS)-2-(4-bromobenzenesulfonylamino)-N-(4-(carboxymethyl)phenyl)-3-(1H-imidazol-1-yl)propanamide] here?
The IC50 was 0.18 µM.

And the IC50 [2]?
The IC50 was 1.7 µM.

With O=C(O)Cc1ccc(NC(=O)C(COc2cccnc2)NS(=O)(=O)c2ccc(Cl)cc2)cc1 (racemic) [Example 116, (RS)-N-(4-(carboxymethyl)phenyl)-2-(4-chlorobenzenesulfonylamino)-3-(pyridin-3-yloxy)propanamide hydrochloride] as the compound, how does the IC50 [1] read?
The IC50 was 0.5 µM.

What about the IC50 [2] of the same compound?
Its IC50 is 0.95 µM.

Which results are given for O=C(O)Cc1ccc(NC(=O)C(COc2cccnc2)NS(=O)(=O)c2ccc(F)cc2)cc1 (racemic) [Example 123, (RS)-N-(4-(carboxymethyl)phenyl)-2-(4-fluorobenzenesulfonylamino)-3-(pyridin-3-yloxy)propanamide]?
IC50 [1]: 2 µM; IC50 [2]: 0.31 µM

With O=C(O)Cc1ccc(NC(=O)C(COc2cccnc2)NS(=O)(=O)c2ccc(Br)cc2)cc1 (racemic) [Example 124, (RS)-2-(4-bromobenzenesulfonylamino)-N-(4-(carboxymethyl)phenyl)-3-(pyridin-3-yloxy)propanamide] as the compound, how does the IC50 [1] read?
The IC50 was 0.13 µM.

What about the IC50 [2] of the same compound?
The IC50 was 0.31 µM.

How did the IC50 [1] turn out when O=C(O)Cc1ccc(NC(=O)C(COc2ccccc2)NS(=O)(=O)c2ccc(Cl)cc2)cc1 (racemic) [Example 129, (RS)-N-(4-(carboxymethyl)phenyl)-2-(4-chlorobenzenesulfonylamino)-3-phenoxypropanamide] was run?
The IC50 was 0.72 µM.

And the IC50 [2]?
The IC50 was 0.54 µM.

For O=C(O)Cc1ccc(NC(=O)C(COc2ccc(Cl)cc2)NS(=O)(=O)c2ccc(Cl)cc2)cc1 (racemic) [Example 130, (RS)-N-(4-(carboxymethyl)phenyl)-2-(4-chlorobenzenesulfonylamino)-3-(4-chlorophenoxy)propanamide], which IC50 [1] is on record?
The IC50 was 0.16 µM.

And the IC50 [2]?
Its IC50 is 1.7 µM.

Which IC50 [1] does the source give for O=C(O)Cc1ccc(NC(=O)C(COc2cccc(Cl)c2)NS(=O)(=O)c2ccc(Cl)cc2)cc1 (racemic) [Example 131, (RS)-N-(4-(carboxymethyl)phenyl)-2-(4-chlorobenzenesulfonylamino)-3-(3-chlorophenoxy)propanamide] here?
Its IC50 is 0.047 µM.

And the IC50 [2]?
Its IC50 is 1.7 µM.

O=C(O)Cc1ccc(NC(=O)C(COc2ccccc2Cl)NS(=O)(=O)c2ccc(Cl)cc2)cc1 (racemic) [Example 132, (RS)-N-(4-(carboxymethyl)phenyl)-2-(4-chlorobenzenesulfonylamino)-3-(2-chlorophenoxy)propanamide] was tested. Which IC50 [1] did it give?
Its IC50 is 0.023 µM.

And the IC50 [2]?
The IC50 was 1.7 µM.

Which results are given for O=C(O)Cc1ccc(NC(=O)C(COc2ccccc2)NS(=O)(=O)c2ccc(F)cc2)cc1 (racemic) [Example 136, (RS)-N-(4-(carboxymethyl)phenyl)-2-(4-fluorobenzenesulfonylamino)-3-phenoxypropanamide]?
IC50 [1]: 0.15 µM; IC50 [2]: 0.55 µM

Which IC50 [1] does the source give for O=C(O)Cc1ccc(NC(=O)C(COc2ccc(Cl)cc2)NS(=O)(=O)c2ccc(F)cc2)cc1 (racemic) [Example 137, (RS)-N-(4-(carboxymethyl)phenyl)-3-(4-chlorophenoxy)-2-(4-fluorobenzenesulfonylamino)propanamide] here?
The IC50 was 0.1 µM.

What about the IC50 [2] of the same compound?
Its IC50 is 1.7 µM.

What does the source list for O=C(O)Cc1ccc(NC(=O)C(COc2cccc(Cl)c2)NS(=O)(=O)c2ccc(F)cc2)cc1 (racemic) [Example 138, (RS)-N-(4-(carboxymethyl)phenyl)-3-(3-chlorophenoxy)-2-(4-fluorobenzenesulfonylamino)propanamide]?
IC50 [1]: 0.1 µM; IC50 [2]: 0.53 µM

Which results are given for O=C(O)Cc1ccc(NC(=O)C(COc2ccccc2)NS(=O)(=O)c2ccc(Br)cc2)cc1 (racemic) [Example 142, (RS)-2-(4-bromobenzenesulfonylamino)-N-(4-(carboxymethyl)phenyl)-3-phenoxypropanamide]?
IC50 [1]: 0.024 µM; IC50 [2]: 0.53 µM

How did the IC50 [1] turn out when O=C(O)Cc1ccc(NC(=O)C(COc2ccc(Cl)cc2)NS(=O)(=O)c2ccc(Br)cc2)cc1 (racemic) [Example 143, (RS)-2-(4-bromobenzenesulfonylamino)-N-(4-(carboxymethyl)phenyl)-3-(4-chlorophenoxy) propanamide] was run?
The IC50 was 0.037 µM.

And the IC50 [2]?
Its IC50 is 1.7 µM.

How did the IC50 [1] turn out when O=C(O)Cc1ccc(NC(=O)C(COc2cccc(Cl)c2)NS(=O)(=O)c2ccc(Br)cc2)cc1 (racemic) [Example 144, (RS)-2-(4-bromobenzenesulfonylamino)-N-(4-(carboxymethyl)phenyl)-3-(3-chlorophenoxy) propanamide] was run?
The IC50 was 0.051 µM.

What about the IC50 [2] of the same compound?
The IC50 was 0.53 µM.

What does the source list for O=C(O)Cc1ccc(NC(=O)C(COc2ccccc2)NS(=O)(=O)c2ccc(I)cc2)cc1 (racemic) [Example 149, (RS)-N-(4-(carboxymethyl)phenyl)-2-(4-iodobenzenesulfonylamino)-3-phenoxypropanamide]?
IC50 [1]: 0.017 µM; IC50 [2]: 0.17 µM

Which results are given for O=C(O)Cc1ccc(NC(=O)C(COc2ccc(Cl)cc2)NS(=O)(=O)c2ccc(I)cc2)cc1 (racemic) [Example 150, (RS)-N-(4-(carboxymethyl)phenyl)-3-(4-chlorophenoxy)-2-(4-iodobenzenesulfonylamino)propanamide]?
IC50 [1]: 0.019 µM; IC50 [2]: 5.4 µM

With O=C(O)Cc1ccc(NC(=O)C(COc2cccc(Cl)c2)NS(=O)(=O)c2ccc(I)cc2)cc1 (racemic) [Example 151, (RS)-N-(4-(carboxymethyl)phenyl)-3-(3-chlorophenoxy)-2-(4-iodobenzenesulfonylamino) propanamide] as the compound, how does the IC50 [1] read?
The IC50 was 0.019 µM.

What about the IC50 [2] of the same compound?
Its IC50 is 1.7 µM.

What does the source list for O=C(O)Cc1ccc(NC(=O)C(COc2ccccc2Cl)NS(=O)(=O)c2ccc(I)cc2)cc1 (racemic) [Example 152, (RS)-N-(4-(carboxymethyl)phenyl)-3-(2-chlorophenoxy)-2-(4-iodobenzenesulfonylamino)propanamide]?
IC50 [1]: 0.074 µM; IC50 [2]: 1.7 µM

Which IC50 [1] does the source give for O=C(O)Cc1ccc(NC(=O)C(CCOC2CCCCO2)NS(=O)(=O)c2ccc(Cl)cc2)cc1 (racemic) [Example 169, (RS)-N-(4-(carboxymethyl)phenyl)-2-(4-chlorobenzenesulfonylamino)-4-(tetrahydropyran-2-yloxy)butanamide] here?
Its IC50 is 0.69 µM.

And the IC50 [2]?
The IC50 was 1.7 µM.
